PubChem BioAssay AID1259407 (Chemical Carcinogenesis Research Information System (CCRIS), 2018)
Active and inactive are the calls of the source. How the calls were made is not given here.

System: CCRIS mutagenicity, Ames/micronucleus/aberration tests
Assay: CCRIS mutagenicity studies
[1] = Test System: AMES SALMONELLA TYPHIMURIUM, Strain/Indicator: TA98, Metabolic Activation: NONE, Method: STANDARD PLATE
[2] = Test System: AMES SALMONELLA TYPHIMURIUM, Strain/Indicator: TA100, Metabolic Activation: NONE, Method: STANDARD PLATE
[3] = Test System: AMES SALMONELLA TYPHIMURIUM, Strain/Indicator: TA1535, Metabolic Activation: NONE, Method: STANDARD PLATE
[4] = Test System: AMES SALMONELLA TYPHIMURIUM, Strain/Indicator: TA1537, Metabolic Activation: NONE, Method: STANDARD PLATE

SMILES: O=C1OC2(c3ccccc31)c1cc(I)c(O)c(I)c1Oc1c2cc(I)c(O)c1I
- mutagenic call (Test System: AMES SALMONELLA TYPHIMURIUM, Strain/Indicator: TA97A, Metabolic Activation: NONE, Method: PREINCUBATION): inactive; negative
- mutagenic call (Test System: AMES SALMONELLA TYPHIMURIUM, Strain/Indicator: TA97A, Metabolic Activation: RAT CECAL CELL-FREE EXTRACTS, Method: PREINCUBATION): inactive; negative
- mutagenic call (Test System: AMES SALMONELLA TYPHIMURIUM, Strain/Indicator: TA97A, Metabolic Activation: RAT, LIVER, S9, AROCLOR 1254, Method: PREINCUBATION): inactive; negative
- mutagenic call (Test System: AMES SALMONELLA TYPHIMURIUM, Strain/Indicator: TA98, Metabolic Activation: NONE, Method: PREINCUBATION): inactive; negative
- mutagenic call [1]: inactive; negative
- mutagenic call (Test System: AMES SALMONELLA TYPHIMURIUM, Strain/Indicator: TA98, Metabolic Activation: RAT CECAL CELL-FREE EXTRACTS, Method: PREINCUBATION): inactive; negative
- mutagenic call (Test System: AMES SALMONELLA TYPHIMURIUM, Strain/Indicator: TA98, Metabolic Activation: RAT, LIVER, S9, AROCLOR 1254, Method: PREINCUBATION): inactive; negative
- mutagenic call (Test System: AMES SALMONELLA TYPHIMURIUM, Strain/Indicator: TA98, Metabolic Activation: RAT, LIVER, S9, AROCLOR 1254, Method: STANDARD PLATE): inactive; negative
- mutagenic call (Test System: AMES SALMONELLA TYPHIMURIUM, Strain/Indicator: TA98, Metabolic Activation: S9, Method: PREINCUBATION): inactive; negative
- mutagenic call (Test System: AMES SALMONELLA TYPHIMURIUM, Strain/Indicator: TA100, Metabolic Activation: NONE, Method: PREINCUBATION): inactive; negative
- mutagenic call [2]: inactive; negative
- mutagenic call (Test System: AMES SALMONELLA TYPHIMURIUM, Strain/Indicator: TA100, Metabolic Activation: RAT CECAL CELL-FREE EXTRACTS, Method: PREINCUBATION): inactive; negative
- mutagenic call (Test System: AMES SALMONELLA TYPHIMURIUM, Strain/Indicator: TA100, Metabolic Activation: RAT, LIVER, S9, AROCLOR 1254, Method: PREINCUBATION): inactive; negative
- mutagenic call (Test System: AMES SALMONELLA TYPHIMURIUM, Strain/Indicator: TA100, Metabolic Activation: RAT, LIVER, S9, AROCLOR 1254, Method: STANDARD PLATE): inactive; negative
- mutagenic call (Test System: AMES SALMONELLA TYPHIMURIUM, Strain/Indicator: TA100, Metabolic Activation: S9, Method: PREINCUBATION): inactive; negative
- mutagenic call (Test System: AMES SALMONELLA TYPHIMURIUM, Strain/Indicator: TA102, Metabolic Activation: NONE, Method: PREINCUBATION): inactive; negative
- mutagenic call (Test System: AMES SALMONELLA TYPHIMURIUM, Strain/Indicator: TA102, Metabolic Activation: RAT CECAL CELL-FREE EXTRACTS, Method: PREINCUBATION): inactive; negative
- mutagenic call (Test System: AMES SALMONELLA TYPHIMURIUM, Strain/Indicator: TA102, Metabolic Activation: RAT, LIVER, S9, AROCLOR 1254, Method: PREINCUBATION): inactive; negative
- mutagenic call (Test System: AMES SALMONELLA TYPHIMURIUM, Strain/Indicator: TA104, Metabolic Activation: NONE, Method: PREINCUBATION): inactive; negative
- mutagenic call (Test System: AMES SALMONELLA TYPHIMURIUM, Strain/Indicator: TA104, Metabolic Activation: RAT CECAL CELL-FREE EXTRACTS, Method: PREINCUBATION): inactive; negative
- mutagenic call (Test System: AMES SALMONELLA TYPHIMURIUM, Strain/Indicator: TA104, Metabolic Activation: RAT, LIVER, S9, AROCLOR 1254, Method: PREINCUBATION): inactive; negative
- mutagenic call [3]: inactive; negative
- mutagenic call (Test System: AMES SALMONELLA TYPHIMURIUM, Strain/Indicator: TA1535, Metabolic Activation: RAT, LIVER, S9, AROCLOR 1254, Method: STANDARD PLATE): inactive; negative
- mutagenic call [4]: inactive; negative
- mutagenic call (Test System: AMES SALMONELLA TYPHIMURIUM, Strain/Indicator: TA1537, Metabolic Activation: RAT, LIVER, S9, AROCLOR 1254, Method: STANDARD PLATE): inactive; negative
- mutagenic call (Test System: AMES SALMONELLA TYPHIMURIUM, Strain/Indicator: TA1538, Metabolic Activation: NONE, Method: STANDARD PLATE): inactive; negative
- mutagenic call (Test System: AMES SALMONELLA TYPHIMURIUM, Strain/Indicator: TA1538, Metabolic Activation: RAT, LIVER, S9, AROCLOR 1254, Method: STANDARD PLATE): inactive; negative
- mutagenic call (Test System: MOUSE LYMPHOMA, Strain/Indicator: L5178Y (TK+/TK-), Metabolic Activation: RAT, LIVER, S9, AROCLOR 1254, Method: SUSPENSION/PLATE): inactive; negative

SMILES: CCSC(=O)N1CCCCCC1
- mutagenic call (Test System: AMES SALMONELLA TYPHIMURIUM, Strain/Indicator: TA98, Metabolic Activation: NONE): inactive; negative
- mutagenic call (Test System: AMES SALMONELLA TYPHIMURIUM, Strain/Indicator: TA98, Metabolic Activation: RAT, LIVER, S-9, AROCLOR 1254): inactive; negative
- mutagenic call (Test System: AMES SALMONELLA TYPHIMURIUM, Strain/Indicator: TA100, Metabolic Activation: NONE): inactive; negative
- mutagenic call (Test System: AMES SALMONELLA TYPHIMURIUM, Strain/Indicator: TA100, Metabolic Activation: RAT, LIVER, S-9, AROCLOR 1254): inactive; negative
- mutagenic call (Test System: AMES SALMONELLA TYPHIMURIUM, Strain/Indicator: TA102, Metabolic Activation: NONE): inactive; negative
- mutagenic call (Test System: AMES SALMONELLA TYPHIMURIUM, Strain/Indicator: TA102, Metabolic Activation: RAT, LIVER, S-9, AROCLOR 1254): inactive; negative
- mutagenic call (Test System: AMES SALMONELLA TYPHIMURIUM, Strain/Indicator: TA1535, Metabolic Activation: NONE): inactive; negative
- mutagenic call (Test System: AMES SALMONELLA TYPHIMURIUM, Strain/Indicator: TA1535, Metabolic Activation: RAT, LIVER, S-9, AROCLOR 1254): inactive; negative
- mutagenic call (Test System: AMES SALMONELLA TYPHIMURIUM, Strain/Indicator: TA1537, Metabolic Activation: NONE): inactive; negative
- mutagenic call (Test System: AMES SALMONELLA TYPHIMURIUM, Strain/Indicator: TA1537, Metabolic Activation: RAT, LIVER, S-9, AROCLOR 1254): inactive; negative

SMILES: Nc1nnc(/C(=C/c2ccc([N+](=O)[O-])o2)c2ccco2)o1
- mutagenic call (Test System: UDS HUMAN FIBROBLASTS, Strain/Indicator: THY INCORP (NON-S-PHASE), Metabolic Activation: NONE, Method: AUTORADIOGRAPHY): active; positive

SMILES: O=c1c(O)c(-c2ccc(O)cc2)oc2cc(O)cc(O)c12
- mutagenic call (Test System: AMES SALMONELLA TYPHIMURIUM, Strain/Indicator: TA97A, Metabolic Activation: NONE, Method: STANDARD PLATE): inactive; negative
- mutagenic call (Test System: AMES SALMONELLA TYPHIMURIUM, Strain/Indicator: TA97A, Metabolic Activation: RAT, LIVER, S-9, AROCLOR 1254, Method: STANDARD PLATE): active; positive
- mutagenic call (Test System: AMES SALMONELLA TYPHIMURIUM, Strain/Indicator: TA98, Metabolic Activation: HAMSTER, LIVER, S-9, AROCLOR 1254, Method: STANDARD PLATE): active; positive
- mutagenic call [1]: inactive; negative
- mutagenic call (Test System: AMES SALMONELLA TYPHIMURIUM, Strain/Indicator: TA98, Metabolic Activation: RAT, LIVER, S-9, 5,6-BENZOFLAVONE AND/OR SODIUM PHENOBARBITAL, Method: PREINCUBATION): active; positive
- mutagenic call (Test System: AMES SALMONELLA TYPHIMURIUM, Strain/Indicator: TA98, Metabolic Activation: RAT, LIVER, S-9, AROCLOR 1254, Method: STANDARD PLATE): active; positive
- mutagenic call (Test System: AMES SALMONELLA TYPHIMURIUM, Strain/Indicator: TA98, Metabolic Activation: RAT, LIVER, S-105, 5,6-BENZOFLAVONE AND/OR SODIUM PHENOBARBITAL, Method: PREINCUBATION): inactive; negative
- mutagenic call [2]: inactive; negative
- mutagenic call (Test System: AMES SALMONELLA TYPHIMURIUM, Strain/Indicator: TA102, Metabolic Activation: NONE, Method: STANDARD PLATE): inactive; negative
- mutagenic call (Test System: AMES SALMONELLA TYPHIMURIUM, Strain/Indicator: TA102, Metabolic Activation: RAT, LIVER, S-9, AROCLOR 1254, Method: STANDARD PLATE): active; positive
- mutagenic call (Test System: AMES SALMONELLA TYPHIMURIUM, Strain/Indicator: TA1535, Metabolic Activation: HAMSTER, LIVER, S-9, AROCLOR 1254, Method: STANDARD PLATE): inactive; negative
- mutagenic call [3]: inactive; negative
- mutagenic call (Test System: AMES SALMONELLA TYPHIMURIUM, Strain/Indicator: TA1535, Metabolic Activation: RAT, LIVER, S-9, AROCLOR 1254, Method: STANDARD PLATE): inactive; negative
- mutagenic call (Test System: AMES SALMONELLA TYPHIMURIUM, Strain/Indicator: TA1537, Metabolic Activation: HAMSTER, LIVER, S-9, AROCLOR 1254, Method: STANDARD PLATE): active; positive
- mutagenic call [4]: inactive; negative
- mutagenic call (Test System: AMES SALMONELLA TYPHIMURIUM, Strain/Indicator: TA1537, Metabolic Activation: RAT, LIVER, S-9, AROCLOR 1254, Method: STANDARD PLATE): active; positive
- mutagenic call (Test System: MOUSE LYMPHOMA, Strain/Indicator: L5178Y (TK+/TK-), Metabolic Activation: NONE, Method: SUSPENSION/PLATE): active; positive. reevaluation of results: positive
- mutagenic call (Test System: MOUSE LYMPHOMA, Strain/Indicator: L5178Y (TK+/TK-), Metabolic Activation: RAT, LIVER, S-9, AROCLOR 1254, Method: SUSPENSION/PLATE): active; positive. reevaluation of results: equivocal
